Patent US10202377B2, “3-(1H-benzo[D]imidazol-2-yl)-1H-pyrazolo[3,4-C]pyridine and therapeutic uses thereof” (Samumed, LLC, priority 2014, dated 2019)

What was measured:
[1] = system: primary human fibroblasts derived from IPF patients (LL29 cells); experiment: Inhibition of fibrosis (αSMA staining) in TGF-β1-treated primary human fibroblasts from IPF patients; assay type: cell-based; details: Fibroblast, 96 h, TGF-β1 20 ng/mL, 4 days
Method: The above synthesized compounds were screened using primary human fibroblasts (derived from IPF patients) treated with TGF-β1 to determine their ability to inhibit the fibrotic process.
Compound Screening: Each compound was dissolved in DMSO as a 10 mM stock and used to prepare compound source plates. […] LL29 cells were plated at 1,500 cells/well in 80 μl/well F12 medium supplemented with 1% Fetal Bovine Serum. One hour after addition of the cells, TGF-β1 (Peprotech; 20 ng/mL) was added to the plates to induce fibrosis (ref. 1 and 2 above). Wells treated with TGF-β1 and containing DMSO were used as controls. Cells were incubated at 37° C. and 5% CO2 for 4 days. Following incubation for 4 days, SYTOX green nucleic acid stain (Life Technologies [Thermo Fisher Scientific]) was added to the wells at a final concentration of 1 uM and incubated at room temperature for 30 min. Cells were then fixed using 4% formaldehyde (Electron Microscopy Sciences), washed 3 times with PBS followed by blocking and permeabilization using 3% Bovine Serum Albumin (BSA; Sigma) and 0.3% Triton X-100 (Sigma) in PBS. Cells were then stained with antibody specific to α-smooth muscle actin (aSMA; Abcam) (ref. 1 and 2 above) in 3% Bovine Serum Albumin (BSA; Sigma) and 0.3% Triton X-100 (Sigma) in PBS, and incubated overnight at 4° C. […] Dead or apoptotic cells were excluded from analysis based on positive SYTOX green staining. % of total cells positive for αSMA were counted in each well and normalized to the average of 11 wells treated with TGF-β1 on the same plate using Dotmatics' Studies Software. […] The EC50 values are reported.

[2] = system: Wnt activity (Sp5-Luc reporter, SW480 colon carcinoma cells); experiment: Sp5-Luc Wnt reporter gene screening assay in SW480 colon carcinoma cells; details: Homo sapiens

## Cc1ccncc1-c1cc2c(-c3nc4c(-c5ccsc5)cccc4[nH]3)n[nH]c2cn1 [Compound 265, 5-(4-Methylpyridin-3-yl)-3-(4-(thiophen-3-yl)-1H-benzo[d]imidazol-2-yl)-1H-pyrazolo[3,4-c]pyridine]
[1]
  EC50: 9 nM
[2]
  IC50: 19.4 nM

## CC(C)C(=O)Nc1cncc(-c2cc3c(-c4nc5c(-c6ccccc6F)cccc5[nH]4)n[nH]c3cn2)c1 [Compound 61, N-(5-(3-(4-(2-Fluorophenyl)-1H-benzo[d]imidazol-2-yl)-1H-pyrazolo[3,4-c]pyridin-5-yl)pyridin-3-yl)isobutyramide]
[1]
  EC50: 81 nM
[2]
  IC50: 81.2 nM

## O=C(Nc1cncc(-c2cc3c(-c4nc5c(-c6ccsc6)cccc5[nH]4)n[nH]c3cn2)c1)c1ccccc1 [Compound 271, N-(5-(3-(4-(Thiophen-3-yl)-1H-benzo[d]imidazol-2-yl)-1H-pyrazolo[3,4-c]pyridin-5-yl)pyridin-3-yl)benzamide]
[1]
  EC50: 9 nM
[2]
  IC50: 53.8 nM

## CN(C)CCOc1cncc(-c2cc3c(-c4nc5c(-c6cccc(F)c6)cccc5[nH]4)n[nH]c3cn2)c1 [Compound 947, 2-((5-(3-(4-(3-Fluorophenyl)-1H-benzo[d]imidazol-2-yl)-1H-pyrazolo[3,4-c]pyridin-5-yl)pyridin-3-yl)oxy)-N,N-dimethylethan-1-amine]
[1]
  EC50: 9990 nM
[2]
  IC50: 463 nM

## Oc1cncc(-c2cc3c(-c4nc5c(-c6cccc(F)c6)cccc5[nH]4)n[nH]c3cn2)c1 [Compound 949, 5-(3-(4-(3-Fluorophenyl)-1H-benzo[d]imidazol-2-yl)-1H-pyrazolo[3,4-c]pyridin-5-yl)pyridin-3-ol]
[1]
  EC50: 9990 nM
[2]
  IC50: 29 nM

## CN1CCN(c2cccc3[nH]c(-c4n[nH]c5cnc(-c6cncnc6)cc45)nc23)CC1 [Compound 234, 3-(4-(4-Methylpiperazin-1-yl)-1H-benzo[d]imidazol-2-yl)-5-(pyrimidin-5-yl)-1H-pyrazolo[3,4-c]pyridine]
[1]
  EC50: 9 nM
[2]
  IC50: 798 nM

## Cc1ccncc1-c1cc2c(-c3nc4c(-c5ccncc5)cccc4[nH]3)n[nH]c2cn1 [Compound 109, 5-(4-Methylpyridin-3-yl)-3-(4-(pyridin-4-yl)-1H-benzo[d]imidazol-2-yl)-1H-pyrazolo[3,4-c]pyridine]
[1]
  EC50: 29 nM
[2]
  IC50: 42.5 nM

## CN(C)c1cncc(-c2cc3c(-c4nc5c(-c6cccc(F)c6)cccc5[nH]4)n[nH]c3cn2)c1 [Compound 7, 5-(3-(4-(3-Fluorophenyl)-1H-benzo[d]imidazol-2-yl)-1H-pyrazolo[3,4-c]pyridin-5-yl)-N,N-dimethylpyridin-3-amine]
[1]
  EC50: 17 nM
[2]
  IC50: 42.4 nM

## CS(=O)(=O)NCc1cc(F)cc(-c2cccc3[nH]c(-c4n[nH]c5cnc(-c6cncc(NC(=O)c7ccccc7)c6)cc45)nc23)c1 [Compound 427, N-(5-(3-(4-(3-Fluoro-5-(methylsulfonamidomethyl)phenyl)-1H-benzo[d]imidazol-2-yl)-1H-pyrazolo[3,4-c]pyridin-5-yl)pyridin-3-yl)benzamide]
[1]
  EC50: 9 nM
[2]
  IC50: 172 nM

## CN(C)CCNc1cc(F)cc(-c2cccc3[nH]c(-c4n[nH]c5cnc(-c6cncc(CNCC7CCCC7)c6)cc45)nc23)c1 [Compound 466, N^1-(3-(2-(5-(5-(((Cyclopentylmethyl)amino)methyl)pyridin-3-yl)-1H-pyrazolo[3,4-c]pyridin-3-yl)-1H-benzo[d]imidazol-4-yl)-5-fluorophenyl)-N^2,N^2-dimethylethane-1,2-diamine]
[1]
  EC50: 308 nM
[2]
  IC50: 466 nM

## CC(C)C(=O)Nc1cncc(-c2cc3c(-c4nc5c(-c6cccnc6)cccc5[nH]4)n[nH]c3cn2)c1 [Compound 87, N-(5-(3-(4-(Pyridin-3-yl)-1H-benzo[d]imidazol-2-yl)-1H-pyrazolo[3,4-c]pyridin-5-yl)pyridin-3-yl)isobutyramide]
[1]
  EC50: 124 nM
[2]
  IC50: 45.4 nM

## CS(=O)(=O)NCc1cc(F)cc(-c2cccc3[nH]c(-c4n[nH]c5cnc(-c6cncc(CNCc7ccccc7)c6)cc45)nc23)c1 [Compound 439, N-(3-(2-(5-(5-((Benzylamino)methyl)pyridin-3-yl)-1H-pyrazolo[3,4-c]pyridin-3-yl)-1H-benzo[d]imidazol-4-yl)-5-fluorobenzyl)methanesulfonamide]
[1]
  EC50: 9 nM
[2]
  IC50: 40.1 nM

## CCC(=O)Nc1cncc(-c2cc3c(-c4nc5c(-c6cccs6)cccc5[nH]4)n[nH]c3cn2)c1 [Compound 313, N-(5-(3-(4-(Thiophen-2-yl)-1H-benzo[d]imidazol-2-yl)-1H-pyrazolo[3,4-c]pyridin-5-yl)pyridin-3-yl)propionamide]
[1]
  EC50: 455 nM
[2]
  IC50: 126 nM

## Cc1ccc(-c2cccc3[nH]c(-c4n[nH]c5cnc(-c6cncc(CN7CCCCC7)c6)cc45)nc23)s1 [Compound 379, 3-(4-(5-Methylthiophen-2-yl)-1H-benzo[d]imidazol-2-yl)-5-(5-(piperidin-1-ylmethyl)pyridin-3-yl)-1H-pyrazolo[3,4-c]pyridine]
[1]
  EC50: 9 nM
[2]
  IC50: 359 nM

## CCCC(=O)Nc1cncc(-c2cc3c(-c4nc5c(-c6ccc(C)s6)cccc5[nH]4)n[nH]c3cn2)c1 [Compound 381, N-(5-(3-(4-(5-Methylthiophen-2-yl)-1H-benzo[d]imidazol-2-yl)-1H-pyrazolo[3,4-c]pyridin-5-yl)pyridin-3-yl)butyramide]
[1]
  EC50: 79 nM
[2]
  IC50: 21.5 nM

## CC(C)C(=O)Nc1cncc(-c2cc3c(-c4nc5c(-c6ccoc6)cccc5[nH]4)n[nH]c3cn2)c1 [Compound 295, N-(5-(3-(4-(Furan-3-yl)-1H-benzo[d]imidazol-2-yl)-1H-pyrazolo[3,4-c]pyridin-5-yl)pyridin-3-yl)isobutyramide]
[1]
  EC50: 249 nM
[2]
  IC50: 39.3 nM

## COc1cncc(-c2cc3c(-c4nc5c(-c6cccc(F)c6)cccc5[nH]4)n[nH]c3cn2)c1 [Compound 948, 3-(4-(3-Fluorophenyl)-1H-benzo[d]imidazol-2-yl)-5-(5-methoxypyridin-3-yl)-1H-pyrazolo[3,4-c]pyridine]
[1]
  EC50: 72 nM
[2]
  IC50: 33 nM

## CC(C)(C)C(=O)Nc1cncc(-c2cc3c(-c4nc5c(-c6ccsc6)cccc5[nH]4)n[nH]c3cn2)c1 [Compound 268, N-(5-(3-(4-(Thiophen-3-yl)-1H-benzo[d]imidazol-2-yl)-1H-pyrazolo[3,4-c]pyridin-5-yl)pyridin-3-yl)pivalamide]
[1]
  EC50: 9 nM
[2]
  IC50: 76.1 nM

## CCCCC(=O)Nc1cncc(-c2cc3c(-c4nc5c(-c6cc(F)cc(NCCN(C)C)c6)cccc5[nH]4)n[nH]c3cn2)c1 [Compound 460, N-(5-(3-(4-(3-((2-(Dimethylamino)ethyl)amino)-5-fluorophenyl)-1H-benzo[d]imidazol-2-yl)-1H-pyrazolo[3,4-c]pyridin-5-yl)pyridin-3-yl)pentanamide]
[1]
  EC50: 1060 nM
[2]
  IC50: 182 nM

## O=C(Nc1cncc(-c2cc3c(-c4nc5c(N6CCCCC6)cccc5[nH]4)n[nH]c3cn2)c1)C1CC1 [Compound 175, N-(5-(3-(4-(Piperidin-1-yl)-1H-benzo[d]imidazol-2-yl)-1H-pyrazolo[3,4-c]pyridin-5-yl)pyridin-3-yl)cyclopropanecarboxamide]
[1]
  EC50: 187 nM
[2]
  IC50: 76.9 nM

## CCNCc1cncc(-c2cc3c(-c4nc5c(-c6ccccn6)cccc5[nH]4)n[nH]c3cn2)c1 [Compound 136, N-((5-(3-(4-(Pyridin-2-yl)-1H-benzo[d]imidazol-2-yl)-1H-pyrazolo[3,4-c]pyridin-5-yl)pyridin-3-yl)methyl)ethanamine]
[1]
  EC50: 122 nM
[2]
  IC50: 177 nM
